Values after ≈ are worked out from the molar mass of the structure shown.
Assays:
Format in all cases: cell-based
Acinetobacter baumannii = assay: MIC and MBC by broth dilution in 96-well plate
Protocol: (§1) From the stock solutions of the drugs Alexidine and Chlorhexidine, dilution series was prepared in the wells of a 96-well plate by performing 1:1 dilutions to cover a concentration range of 0-512 ppm. Ten microliters from each of the drug concentration was mixed with […] of culture broth containing approximately 10^5CFU/mL of bacteria or yeast species. The test plate was incubated for 18-24 hours after which absorbance of each well was read at 670 nm on a BioTek plate reader. […] The wells containing growth should have had higher absorbance reading when compared to the drug control wells. After reading the absorbance for the MIC, 10 μl of each test well was plated onto the surface of D/E agar in 6 or 12 well microtiter plates to determine the MBC. The plates were incubated inverted at 37° C. for 24-48 hours after which numbers of colonies were counted. The MBC value was the lowest concentration of the drug at which no growth was observed.

Candida albicans [1] = assay: MIC and MBC by broth dilution in 96-well plate
Protocol: as §1

Enterobacter cloacae = assay: MIC and MBC by broth dilution in 96-well plate
Protocol: as §1

Enterococcus faecalis = assay: MIC and MBC by broth dilution in 96-well plate
Protocol: as §1

Proteus mirabilis = assay: MIC and MBC by broth dilution in 96-well plate
Protocol: as §1

Pseudomonas aeruginosa [2] = assay: MIC and MBC by broth dilution in 96-well plate
Protocol: as §1

Staphylococcus aureus [3] = assay: MIC and MBC by broth dilution in 96-well plate
Protocol: as §1

Candida albicans [4] = assay: Time to Kill; details: 128 ppm; C. albicans challenge 10^4-10^5 CFU/mL
Protocol: (§2) Alexidine and Chlorhexidine, both at a concentration of 128 ppm were exposed to a Gram positive bacteria (Staphylococcus aureus), a Gram negative bacteria (Pseudomonas aeruginosa), and a fungus (Candida albicans). The challenge concentration for each organism was 10^4-10^5 CFU/mL, and the exposure time varied from 0.5-60 minutes. […] Complete kill of all three organisms was observed within 0.5 -1 minute of Alexidine exposure.

Pseudomonas aeruginosa [5] = assay: Time to Kill; details: 128 ppm; P. aeruginosa challenge 10^4-10^5 CFU/mL
Protocol: as §2

Staphylococcus aureus [6] = assay: Time to Kill; details: 128 ppm; S. aureus challenge 10^4-10^5 CFU/mL
Protocol: as §2

| SMILES | MBC (Acinetobacter baumannii) | MIC (Acinetobacter baumannii) | MBC (Candida albicans [1]) | MIC (Candida albicans [1]) | MBC (Enterobacter cloacae) | MIC (Enterobacter cloacae) | MBC (Enterococcus faecalis) | MIC (Enterococcus faecalis) | MBC (Proteus mirabilis) | MIC (Proteus mirabilis) | MBC (Pseudomonas aeruginosa [2]) | MIC (Pseudomonas aeruginosa [2]) | MBC (Staphylococcus aureus [3]) | MIC (Staphylococcus aureus [3]) | Time to complete kill (Candida albicans [4]) | Time to complete kill (Pseudomonas aeruginosa [5]) | Time to complete kill (Staphylococcus aureus [6]) |
| --- | --- | --- | --- | --- | --- | --- | --- | --- | --- | --- | --- | --- | --- | --- | --- | --- | --- |
| CCCCC(CC)CNC(=N)NC(=N)NCCCCCCNC(=N)NC(=N)NCC(CC)CCCC (stereo not shown) [Alexidine] | 1 µg/mL (≈ 1.97 µM) | 0.5 µg/mL (≈ 0.983 µM) | 1 µg/mL (≈ 1.97 µM) | 1 µg/mL (≈ 1.97 µM) | 2 µg/mL (≈ 3.93 µM) | 2 µg/mL (≈ 3.93 µM) | 2 µg/mL (≈ 3.93 µM) | 0.5 µg/mL (≈ 0.983 µM) | 2 µg/mL (≈ 3.93 µM) | 1 µg/mL (≈ 1.97 µM) | 128 µg/mL (≈ 252 µM) | 8 µg/mL (≈ 15.7 µM) | 1 µg/mL (≈ 1.97 µM) | 0.5 µg/mL (≈ 0.983 µM) | 0.5 to 1 min | 0.5 to 1 min | 0.5 to 1 min |
| [H]/N=C(\N/C(=N/[H])NCCCCCCNC(=N)NC(=N)Nc1ccc(Cl)cc1)Nc1ccc(Cl)cc1 [Chlorhexidine] | 32 µg/mL (≈ 63.3 µM) | 16 µg/mL (≈ 31.7 µM) | 4 µg/mL (≈ 7.91 µM) | 2 µg/mL (≈ 3.96 µM) | 32 µg/mL (≈ 63.3 µM) | 2 µg/mL (≈ 3.96 µM) | 64 µg/mL (≈ 127 µM) | 2 µg/mL (≈ 3.96 µM) | 8 µg/mL (≈ 15.8 µM) | 8 µg/mL (≈ 15.8 µM) | 64 µg/mL (≈ 127 µM) | 8 µg/mL (≈ 15.8 µM) | 16 µg/mL (≈ 31.7 µM) | 0.5 µg/mL (≈ 0.989 µM) | 60 min | 5 min | 60 min |

Reference: US20180221546A1, “IMPLANTABLE ORTHOPEDIC DEVICES HAVING ANTIMICROBIAL COATINGS” (TELEFLEX MEDICAL INCORPORATED, priority 2015, published 2018)
